Source: ChEMBL document CHEMBL1201862, “PubChem BioAssay data set” (2004)
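Cells were grown in 96-well plates and exposed to each compound for 48 hours at five concentrations; endpoints were interpolated linearly between bracketing concentrations, or set to the highest concentration if not reached. GI50 marks 50% less growth.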 The source made the active and inactive calls. No stated cut-off is given here; in the data, active = GI50 up to about 1.1 µM and inactive = higher.

Experiments:
Assay in all cases: NCI tumour cell line growth inhibition, 48 h
[1] = tested on: Hs-578T
[2] = tested on: NCI-H23
[3] = tested on: MOLT-4
[4] = tested on: OVCAR-8
[5] = tested on: HOP-92
[6] = tested on: UACC-62
[7] = tested on: RXF 393
[8] = tested on: M14
[9] = tested on: COLO 205
[10] = tested on: IGROV-1
[11] = tested on: BT-549
[12] = tested on: UO-31
[13] = tested on: TK-10
[14] = tested on: RPMI-8226
[15] = tested on: CCRF-CEM
[16] = tested on: SNB-19
[17] = tested on: LOX IMVI
[18] = tested on: NCI-H226
[19] = tested on: HT-29
[20] = tested on: OVCAR-3

Structure (SMILES): CC(C)(C)C1=NC(=P(c2ccccc2)(c2ccccc2)c2ccccc2)C(=O)O1
- GI50 [1]: > 100 µM (inactive)
- GI50 [2]: > 100 µM (inactive)
- GI50 [3]: > 100 µM (inactive)
- GI50 [4]: > 100 µM (inactive)
- GI50 [5]: > 100 µM (inactive)
- GI50 [6]: > 100 µM (inactive)
- GI50 [7]: > 100 µM (inactive)
- GI50 [8]: > 100 µM (inactive)
- GI50 [9]: > 100 µM (inactive)
- GI50 [10]: > 100 µM (inactive)
- GI50 [11]: > 100 µM (inactive)
- GI50 [12]: > 100 µM (inactive)
- GI50 [13]: > 100 µM (inactive)
- GI50 [14]: > 100 µM (inactive)
- GI50 [15]: > 100 µM (inactive)
- GI50 [16]: > 100 µM (inactive)
- GI50 [17]: > 100 µM (inactive)
- GI50 [18]: > 100 µM (inactive)
- GI50 [19]: > 100 µM (inactive)

Structure (SMILES): N#CCc1nc(-c2cc3ccc(O)cc3oc2=O)cs1
- GI50 [1]: 66.1 µM (inactive)
- GI50 [3]: 37.9 µM (inactive)
- GI50 [4]: > 100 µM (inactive)
- GI50 [5]: > 100 µM (inactive)
- GI50 [6]: 22.6 µM (inactive)
- GI50 [7]: 84.7 µM (inactive)
- GI50 [8]: 46.5 µM (inactive)
- GI50 [9]: > 100 µM (inactive)
- GI50 [10]: 49.1 µM (inactive)
- GI50 [11]: 25.2 µM (inactive)
- GI50 [12]: 37.2 µM (inactive)
- GI50 [13]: > 100 µM (inactive)
- GI50 [14]: 25.7 µM (inactive)
- GI50 [15]: 38.7 µM (inactive)
- GI50 [16]: > 100 µM (inactive)
- GI50 [17]: 46.2 µM (inactive)
- GI50 [18]: 53.6 µM (inactive)
- GI50 [19]: 72.9 µM (inactive)

Structure (SMILES): O=C(OC1OC2COC(=O)c3cc(O)c(O)c(O)c3-c3c(cc(O)c(O)c3O)C(=O)OC3C2OC(=O)[C@@]24CC(=O)[C@@](O)(OC25C(=O)O[C@H]2[C@@H](O)CO[C@@]25O)C2(O)Oc5c(O)c(O)cc(c5C24)C(=O)OC13)c1cc(O)c(O)c(O)c1 (stereo partly specified)
- GI50 [1]: > 100 µM (inactive)
- GI50 [2]: 25.7 µM (inactive)
- GI50 [3]: 40.5 µM (inactive)
- GI50 [4]: 37.1 µM (inactive)
- GI50 [5]: 31.2 µM (inactive)
- GI50 [6]: 35.7 µM (inactive)
- GI50 [7]: > 100 µM (inactive)
- GI50 [8]: 49.3 µM (inactive)
- GI50 [9]: 56.4 µM (inactive)
- GI50 [10]: 75.9 µM (inactive)
- GI50 [11]: > 100 µM (inactive)
- GI50 [12]: 34.8 µM (inactive)
- GI50 [14]: 99.5 µM (inactive)
- GI50 [15]: 26.7 µM (inactive)
- GI50 [20]: 50 µM (inactive)
- GI50 [16]: > 100 µM (inactive)
- GI50 [17]: 12.6 µM (inactive)
- GI50 [18]: 90.4 µM (inactive)
- GI50 [19]: 23.2 µM (inactive)

Structure (SMILES): CC(=C/C=C/C=C(C)\C=C\C=C(\C)C(=O)O)/C=C/C=C(/C)C(=O)O
- GI50 [1]: > 100 µM (inactive)
- GI50 [2]: > 100 µM (inactive)
- GI50 [3]: > 100 µM (inactive)
- GI50 [4]: > 100 µM (inactive)
- GI50 [5]: > 100 µM (inactive)
- GI50 [6]: > 100 µM (inactive)
- GI50 [7]: > 100 µM (inactive)
- GI50 [8]: > 100 µM (inactive)
- GI50 [9]: > 100 µM (inactive)
- GI50 [10]: > 100 µM (inactive)
- GI50 [11]: > 100 µM (inactive)
- GI50 [12]: > 100 µM (inactive)
- GI50 [13]: > 100 µM (inactive)
- GI50 [14]: > 100 µM (inactive)
- GI50 [15]: > 100 µM (inactive)
- GI50 [20]: > 100 µM (inactive)
- GI50 [17]: > 100 µM (inactive)
- GI50 [18]: > 100 µM (inactive)
- GI50 [19]: > 100 µM (inactive)

Structure (SMILES): O=C(c1cccnc1)N1N=C(c2ccc(Cl)cc2)CC1(O)c1cc(F)c(Cl)cc1Cl (stereo unspecified)
- GI50 [1]: 29.4 µM (inactive)
- GI50 [2]: 18.5 µM (inactive)
- GI50 [3]: 6.46 µM (inactive)
- GI50 [4]: 25.1 µM (inactive)
- GI50 [5]: 17.5 µM (inactive)
- GI50 [7]: 7.05 µM (inactive)
- GI50 [8]: 22 µM (inactive)
- GI50 [9]: 9.98 µM (inactive)
- GI50 [10]: 1.65 µM (inactive)
- GI50 [11]: 24.6 µM (inactive)
- GI50 [12]: 15.9 µM (inactive)
- GI50 [13]: 41.1 µM (inactive)
- GI50 [14]: 12.2 µM (inactive)
- GI50 [15]: 13.3 µM (inactive)
- GI50 [20]: 6.5 µM (inactive)
- GI50 [16]: 41.3 µM (inactive)
- GI50 [17]: 15.1 µM (inactive)
- GI50 [18]: 11.6 µM (inactive)
- GI50 [19]: 14.8 µM (inactive)

Structure (SMILES): [N-]=[N+]=Nc1cc(=O)n2c3c(cccc13)CCC2
- GI50 [1]: > 100 µM (inactive)
- GI50 [2]: > 100 µM (inactive)
- GI50 [3]: > 100 µM (inactive)
- GI50 [4]: > 100 µM (inactive)
- GI50 [5]: > 100 µM (inactive)
- GI50 [6]: > 100 µM (inactive)
- GI50 [7]: > 100 µM (inactive)
- GI50 [8]: > 100 µM (inactive)
- GI50 [9]: > 100 µM (inactive)
- GI50 [10]: > 100 µM (inactive)
- GI50 [11]: > 100 µM (inactive)
- GI50 [12]: > 100 µM (inactive)
- GI50 [13]: > 100 µM (inactive)
- GI50 [14]: > 100 µM (inactive)
- GI50 [15]: > 100 µM (inactive)
- GI50 [20]: > 100 µM (inactive)
- GI50 [17]: > 100 µM (inactive)
- GI50 [18]: > 100 µM (inactive)
- GI50 [19]: > 100 µM (inactive)

Structure (SMILES): C[C@@](O)(/C=C/[C@H]1CC=CC(=O)O1)[C@@H](C[C@@H](O)\C=C/C=C\C=C\CO)OP(=O)(O)O [FOSTRIECIN SODIUM]
- GI50 [1]: 5.51 µM (inactive)
- GI50 [2]: 10.2 µM (inactive)
- GI50 [4]: 9.48 µM (inactive)
- GI50 [5]: 2.27 µM (inactive)
- GI50 [6]: 3.77 µM (inactive)
- GI50 [7]: 4.11 µM (inactive)
- GI50 [8]: 0.634 µM (active)
- GI50 [9]: 3.08 µM (inactive)
- GI50 [10]: 5.14 µM (inactive)
- GI50 [11]: 9.59 µM (inactive)
- GI50 [12]: 11 µM (inactive)
- GI50 [13]: 12.8 µM (inactive)
- GI50 [14]: 1.1 µM (active)
- GI50 [15]: 2.12 µM (inactive)
- GI50 [16]: 32.3 µM (inactive)
- GI50 [17]: 2.16 µM (inactive)
- GI50 [18]: 7.4 µM (inactive)
- GI50 [19]: 1.75 µM (inactive)
